Laboratory results as given in patent US11584742B2 (MASARYKOVA UNIVERZITA, priority 2018, dated 2023).
pIC50: −log10 of the molar value.

Tests used:
DR-GFP U2OS cells = experiment: HR assay (GFP fluorescence after I-SceI transfection, flow cytometry); format: cell-based; conditions: Homo sapiens, inhibitor at 25 μM, 72 hours after transfection
Method: DR-GFP U2OS cells (Methods in Molecular Biology 2012, 920, 379.) were transfected with 2.5 μg of I-SceI-expressing pCAGGS vector and treated with the inhibitors at 25 μM concentration. 72 hours after the transfection, the cells were trypsinized and resuspended in 3% BSA in PBS. GFP fluorescence detection was carried out using a BD FACSVerse flow cytometer and data analyzed with FlowJo software.

MRE11 = biological target: T1, MRE11 (Homo sapiens, UniProt P49959); experiment: HTS nuclease assay (cleavage of CY5/BBQ-quenched 5' overhang DNA substrate); format: biochemical; conditions: in vitro HTS nuclease assay; 18 nM MRE11, 40 nM DNA substrate; analysis at t=4 h
T1 sequence (P49959 1-708): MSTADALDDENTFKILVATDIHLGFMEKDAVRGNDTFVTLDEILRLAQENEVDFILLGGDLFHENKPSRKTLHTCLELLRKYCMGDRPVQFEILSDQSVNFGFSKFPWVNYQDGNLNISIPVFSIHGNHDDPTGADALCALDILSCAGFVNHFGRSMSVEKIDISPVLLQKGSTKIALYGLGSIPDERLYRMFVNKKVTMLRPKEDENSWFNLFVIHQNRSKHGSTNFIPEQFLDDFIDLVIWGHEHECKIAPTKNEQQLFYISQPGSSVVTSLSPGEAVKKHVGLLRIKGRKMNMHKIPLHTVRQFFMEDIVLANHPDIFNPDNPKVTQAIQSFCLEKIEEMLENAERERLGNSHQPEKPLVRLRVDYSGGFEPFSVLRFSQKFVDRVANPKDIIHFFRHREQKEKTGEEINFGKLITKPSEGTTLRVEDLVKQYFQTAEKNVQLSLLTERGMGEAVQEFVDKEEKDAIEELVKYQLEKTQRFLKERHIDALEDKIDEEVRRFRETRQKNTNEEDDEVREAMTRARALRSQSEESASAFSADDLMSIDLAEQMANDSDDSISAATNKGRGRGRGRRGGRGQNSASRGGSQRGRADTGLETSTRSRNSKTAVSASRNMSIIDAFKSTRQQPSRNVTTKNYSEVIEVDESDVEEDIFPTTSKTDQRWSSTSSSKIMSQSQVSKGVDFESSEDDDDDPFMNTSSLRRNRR

| SMILES | pIC50 (MRE11) | inhibition at 25 µM (DR-GFP U2OS cells) [%] |
| --- | --- | --- |
| N#C/C(=C\c1cc(F)c(O)c(F)c1)C(=O)Nc1nc(-c2ccccc2)cs1 [Preparative Example 212, (E)-2-cyano-3-(3,5-difluoro-4-hydroxyphenyl)-N-(4-phenylthiazol-2-yl)acrylamide] | 4.05 to 5.00 | < 50 |
| N#C/C(=C\c1ccc(F)c(F)c1)C(=O)Nc1nc(-c2ccccc2)cs1 [Preparative Example 213, (E)-2-cyano-3-(3,4-difluorophenyl)-N-(4-phenylthiazol-2-yl)acrylamide] | 4.05 to 5.00 | < 50 |
| N#C/C(=C\c1ccc(O)c(O)c1)C(=O)Nc1nc(-c2ccc(Br)s2)cs1 [Preparative Example 219, (E)-N-(4-(5-bromothiophen-2-yl)thiazol-2-yl)-2-cyano-3-(3,4-dihydroxyphenyl) acrylamide] | > 5.70 | > 75 |
| N#C/C(=C\c1ccc2c(c1)OCC(=O)N2)C(=O)Nc1nc(-c2ccccc2)cs1 [Preparative Example 220, (E)-2-cyano-3-(3-oxo-3,4-dihydro-2H-benzo[b][1,4]oxazin-7-yl)-N-(4-phenylthiazol-2-yl)acrylamide] | 4.05 to 5.00 | 50 to 75 |
| CC(=O)Nc1ccc(/C=C(\C#N)C(=O)Nc2nc(-c3ccccc3)cs2)cc1O [Preparative Example 223, (E)-3-(4-acetamido-3-hydroxyphenyl)-2-cyano-N-(4-phenylthiazol-2-yl)acrylamide] | 4.05 to 5.00 | < 50 |
| N#C/C(=C\c1ccc(O)cc1F)C(=O)Nc1nc(-c2ccccc2)cs1 [Preparative Example 226, (E)-2-cyano-3-(2-fluoro-4-hydroxyphenyl)-N-(4-phenylthiazol-2-yl)acrylamide] | 4.05 to 5.00 | > 75 |
| Cc1ccc(-c2csc(NC(=O)/C(C#N)=C/c3ccc(O)c(O)c3)n2)cn1 [Preparative Example 232, (E)-2-cyano-3-(3,4-dihydroxyphenyl)-N-(4-(6-methylpyridin-3-yl)thiazol-2-yl)acrylamide] | > 5.70 | < 50 |

Continued, in another order:

| pIC50 (MRE11) | SMILES | inhibition at 25 µM (DR-GFP U2OS cells) [%] |
| --- | --- | --- |
| 4.05 to 5.00 | N#C/C(=C\c1ccc2[nH]c(=O)[nH]c2c1)C(=O)Nc1nc(-c2ccccc2)cs1 [Preparative Example 216, (E)-2-cyano-3-(2-oxo-2,3-dihydro-1H-benzo[d]imidazol-5-yl)-N-(4-phenylthiazol-2-yl)acrylamide] | < 50 |
| 4.05 to 5.00 | Cc1cc(O)ccc1/C=C(\C#N)C(=O)Nc1nc(-c2ccccc2)cs1 [Preparative Example 225, (E)-2-cyano-3-(4-hydroxy-2-methylphenyl)-N-(4-phenylthiazol-2-yl)acrylamide] | < 50 |
| 5.00 to 5.70 | N#C/C(=C\c1ccc(O)c2ccccc12)C(=O)Nc1nc(-c2ccccc2)cs1 [Preparative Example 227, (E)-2-cyano-3-(4-hydroxynaphthalen-1-yl)-N-(4-phenylthiazol-2-yl)acrylamide] | > 75 |
| > 5.70 | Cc1ccc(-c2csc(NC(=O)/C(C#N)=C/c3ccc(O)c(O)c3)n2)s1 [Preparative Example 229, (E)-2-cyano-3-(3,4-dihydroxyphenyl)-N-(4-(5-methylthiophen-2-yl)thiazol-2-yl)acrylamide] | 50 to 75 |
| 5.00 to 5.70 | N#C/C(=C\c1cccc(C(F)(F)F)c1)C(=O)Nc1nc(-c2ccccc2)cs1 [Preparative Example 231, (E)-2-cyano-N-(4-phenylthiazol-2-yl)-3-(3-(trifluoromethyl)phenyl)acrylamide] | < 50 |
| > 5.70 | N#C/C(=C\c1ccc(O)c(O)c1)C(=O)Nc1nc(-c2cccc(F)c2)cs1 [Preparative Example 236, (E)-2-cyano-3-(3,4-dihydroxyphenyl)-N-(4-(3-fluorophenyl)thiazol-2-yl)acrylamide] | 50 to 75 |
